From patent publication US8252832B2, “Kinesin inhibitors as cancer therapeutics” (Novartis AG, priority 2007, dated 2012)
Read-outs that look alike come from different tables or passages of the source.

System: panel of cell lines and tumor explants
Experiment: Soft agar (clonogenic) assay on cell lines and tumor explants
Type: cell-based, human
Parameters: key to Differential: panel average log(GI50) minus sample log(GI50); positive = more sensitive
Details: for GI50: Homo sapiens; for Differential: average log(GI50) 0.236 minus log(GI50)
Method: Compound IIa was tested against a panel of cell lines and tumor explants in a soft agar assay as described in Fiebig, H. H., Maier, A., and Burger, A. M. (Clonogenic assay with established human tumour xenorafts: correlation of in vitro to in vivo activity as a basis for anticancer drug discovery, Eur. J. Cancer 40, 802-820 (2004).) Table 16 lists the type of cancer, the name of the sample, its GI50 (concentration needed to achieve 50% growth inhibition) value in the assay, the logarithm of the GI50 (log(GI50), and the relative sensitivity of each sample (Differential). The differential is calculated by subtracting the log(GI50) for each cell line from the average log(GI50) across the entire panel (0.236 in this case); a positive value indicates a sample that is more sensitive than average, whereas a negative value indicates a sample that is less sensitive than average.

Structure (SMILES): CC(C)(C)[C@H](c1nc(-c2cc(F)ccc2F)cn1Cc1ccccc1)N(CC[C@H](N)CF)C(=O)CO [Compound IIa]
- GI50 (MOLT-4, Leukemia (ALL), sample MOLT4, read-out: GI50): 0.877 nM
- GI50 (Mean across the entire panel, read-out: GI50): 1.72 nM
- GI50 (Melanoma, sample 462, GI50 in nM, read-out: log(GI50) (converted)): ≥ 10 nM
- GI50 (Melanoma, sample 462, read-out: GI50): 10 nM
- GI50 (Melanoma, sample 989, GI50 in nM, read-out: log(GI50) (converted)): 12.7 nM
- GI50 (Melanoma, sample 989, read-out: GI50): 12.7 nM
- GI50 (Melanoma, sample 1341, GI50 in nM, read-out: log(GI50) (converted)): ≥ 10 nM
- GI50 (Melanoma, sample 1341, read-out: GI50): 10 nM
- GI50 (NSCLC, sample 211, GI50 in nM, read-out: log(GI50) (converted)): 0.216 nM
- GI50 (NSCLC, sample 211, read-out: GI50): 0.216 nM
- GI50 (NSCLC, sample 289, GI50 in nM, read-out: log(GI50) (converted)): 4.9 nM
- GI50 (NSCLC, sample 289, read-out: GI50): 4.9 nM
- GI50 (NSCLC, sample 526, GI50 in nM, read-out: log(GI50) (converted)): 1.26 nM
- GI50 (NSCLC, sample 526, read-out: GI50): 1.26 nM
- GI50 (NSCLC, sample 629, GI50 in nM, read-out: log(GI50) (converted)): ≥ 10 nM
- GI50 (NSCLC, sample 629, read-out: GI50): 10 nM
- GI50 (NSCLC, sample 677, GI50 in nM, read-out: log(GI50) (converted)): 1.16 nM
- GI50 (NSCLC, sample 677, read-out: GI50): 1.16 nM
- GI50 (NSCLC, sample 737, GI50 in nM, read-out: log(GI50) (converted)): 3.07 nM
- GI50 (NSCLC, sample 737, read-out: GI50): 3.07 nM
- GI50 (NSCLC, sample 1012, GI50 in nM, read-out: log(GI50) (converted)): 0.927 nM
- GI50 (NSCLC, sample 1012, read-out: GI50): 0.926 nM
- GI50 (NSCLC, sample 1176, GI50 in nM, read-out: log(GI50) (converted)): 3 nM
- GI50 (NSCLC, sample 1176, read-out: GI50): 3 nM
- GI50 (NSCLC, sample 1422, GI50 in nM, read-out: log(GI50) (converted)): 0.728 nM
- GI50 (NSCLC, sample 1422, read-out: GI50): 0.728 nM
- GI50 (NSCLC, sample 1647, GI50 in nM, read-out: log(GI50) (converted)): 16.7 nM
- GI50 (NSCLC, sample 1647, read-out: GI50): 16.8 nM
- GI50 (Ovarian, sample 899, GI50 in nM, read-out: log(GI50) (converted)): ≥ 10 nM
- GI50 (Ovarian, sample 899, read-out: GI50): 10 nM
- GI50 (Ovarian, sample 1353, GI50 in nM, read-out: log(GI50) (converted)): ≥ 10 nM
- GI50 (Ovarian, sample 1353, read-out: GI50): 10 nM
- GI50 (PC-3M, Prostate, sample PC3M, GI50 in nM, read-out: log(GI50) (converted)): 0.424 nM
- GI50 (PC-3M, Prostate, sample PC3M, read-out: GI50): 0.424 nM
- GI50 (Pancreas, sample 546, GI50 in nM, read-out: log(GI50) (converted)): 2.59 nM
- GI50 (Pancreas, sample 546, read-out: GI50): 2.59 nM
- GI50 (Pancreas, sample 736, GI50 in nM, read-out: log(GI50) (converted)): 1.26 nM
- GI50 (Pancreas, sample 736, read-out: GI50): 1.26 nM
- GI50 (Pancreas, sample 1657, GI50 in nM, read-out: log(GI50) (converted)): 27 nM
- GI50 (Pancreas, sample 1657, read-out: GI50): 27 nM
- GI50 (Pancreas, sample 1861, GI50 in nM, read-out: log(GI50) (converted)): 0.622 nM
- GI50 (Pancreas, sample 1861, read-out: GI50): 0.623 nM
- GI50 (Pancreas, sample 1869, GI50 in nM, read-out: log(GI50) (converted)): 10.9 nM
- GI50 (Pancreas, sample 1869, read-out: GI50): 10.9 nM
- GI50 (Pancreas, sample 1872, GI50 in nM, read-out: log(GI50) (converted)): 0.282 nM
- GI50 (Pancreas, sample 1872, read-out: GI50): 0.282 nM
- GI50 (Pancreas, sample 1876, GI50 in nM, read-out: log(GI50) (converted)): 0.337 nM
- GI50 (Pancreas, sample 1876, read-out: GI50): 0.337 nM
- GI50 (Pancreas, sample 1881, GI50 in nM, read-out: log(GI50) (converted)): 2.32 nM
- GI50 (Pancreas, sample 1881, read-out: GI50): 2.32 nM
- GI50 (Pancreas, sample 1887, GI50 in nM, read-out: log(GI50) (converted)): ≥ 10 nM
- GI50 (Pancreas, sample 1887, read-out: GI50): 10 nM
- GI50 (Pancreas, sample 1900, GI50 in nM, read-out: log(GI50) (converted)): 16.9 nM
- GI50 (Pancreas, sample 1900, read-out: GI50): 16.9 nM
- GI50 (Pancreas, sample 1912, GI50 in nM, read-out: log(GI50) (converted)): 0.112 nM
- GI50 (Pancreas, sample 1912, read-out: GI50): 0.112 nM
- GI50 (Pancreas, sample 1937, GI50 in nM, read-out: log(GI50) (converted)): 0.185 nM
- GI50 (Pancreas, sample 1937, read-out: GI50): 0.185 nM
- GI50 (Prostate, sample MRIH1579, GI50 in nM, read-out: log(GI50) (converted)): ≥ 10 nM
- GI50 (Prostate, sample MRIH1579, read-out: GI50): 10 nM
- GI50 (SCLC, sample 538, GI50 in nM, read-out: log(GI50) (converted)): 0.339 nM
- GI50 (SCLC, sample 538, read-out: GI50): 0.339 nM
- GI50 (SCLC, sample 573, GI50 in nM, read-out: log(GI50) (converted)): 0.587 nM
- GI50 (SCLC, sample 573, read-out: GI50): 0.587 nM
- GI50 (SCLC, sample 615, GI50 in nM, read-out: log(GI50) (converted)): 0.082 nM
- GI50 (SCLC, sample 615, read-out: GI50): 0.082 nM
- GI50 (SCLC, sample 650, GI50 in nM, read-out: log(GI50) (converted)): 0.376 nM
- GI50 (SCLC, sample 650, read-out: GI50): 0.376 nM
- GI50 (SCLC, sample H69, GI50 in nM, read-out: log(GI50) (converted)): 0.269 nM
- GI50 (SCLC, sample H69, read-out: GI50): 0.269 nM
- GI50 (Sarcoma, sample 117, GI50 in nM, read-out: log(GI50) (converted)): 0.249 nM
- GI50 (Sarcoma, sample 117, read-out: GI50): 0.249 nM
- GI50 (Sarcoma, sample 417, GI50 in nM, read-out: log(GI50) (converted)): 0.16 nM
- GI50 (Sarcoma, sample 417, read-out: GI50): 0.16 nM
- GI50 (Sarcoma, sample 463, GI50 in nM, read-out: log(GI50) (converted)): 19.1 nM
- GI50 (Sarcoma, sample 463, read-out: GI50): 19.1 nM
- GI50 (Sarcoma, sample 627, GI50 in nM, read-out: log(GI50) (converted)): ≥ 10 nM
- GI50 (Sarcoma, sample 627, read-out: GI50): 10 nM
- GI50 (Sarcoma, sample 1186, GI50 in nM, read-out: log(GI50) (converted)): 0.327 nM
- GI50 (Sarcoma, sample 1186, read-out: GI50): 0.327 nM
- GI50 (Sarcoma, sample 1301, GI50 in nM, read-out: log(GI50) (converted)): 0.235 nM
- GI50 (Sarcoma, sample 1301, read-out: GI50): 0.235 nM
- GI50 (Sarcoma, sample 1410, GI50 in nM, read-out: log(GI50) (converted)): 2.24 nM
- GI50 (Sarcoma, sample 1410, read-out: GI50): 2.25 nM
- GI50 (U-937, Lymphoma (NHL), sample U937, GI50 in nM, read-out: log(GI50) (converted)): 0.0859 nM
- GI50 (U-937, Lymphoma (NHL), sample U937, read-out: GI50): 0.086 nM
- Differential (Leukemia (ALL), sample CCRFCEM): 0.779
- Differential (Leukemia (ALL), sample JURKAT): 1.211
- Differential (Leukemia (ALL), sample MOLT4): 0.293
- Differential (Leukemia (CML), sample K562): 0.805
- Differential (Lymphoma (NHL), sample U937): 1.302
- log(GI50) (Mean across the entire panel, GI50 in nM): 0.236
- Differential (Melanoma, sample 462): −0.764
- Differential (Melanoma, sample 989): −0.868
- Differential (Melanoma, sample 1341): −0.764
- Differential (NSCLC, sample 211): 0.902
- Differential (NSCLC, sample 289): −0.454
- Differential (NSCLC, sample 526): 0.134
- Differential (NSCLC, sample 629): −0.764
- Differential (NSCLC, sample 677): 0.171
- Differential (NSCLC, sample 737): −0.250
- Differential (NSCLC, sample 1012): 0.270
- Differential (NSCLC, sample 1176): −0.241
- Differential (NSCLC, sample 1422): 0.374
- Differential (NSCLC, sample 1647): −0.988
- Differential (Ovarian, sample 899): −0.764
- Differential (Ovarian, sample 1353): −0.764
- Differential (Pancreas, sample 546): −0.177
- Differential (Pancreas, sample 736): 0.134
- Differential (Pancreas, sample 1657): −1.194
- Differential (Pancreas, sample 1861): 0.442
- Differential (Pancreas, sample 1869): −0.800
- Differential (Pancreas, sample 1872): 0.786
- Differential (Pancreas, sample 1876): 0.709
- Differential (Pancreas, sample 1881): −0.128
- Differential (Pancreas, sample 1887): −0.764
- Differential (Pancreas, sample 1900): −0.992
- Differential (Pancreas, sample 1912): 1.187
- Differential (Pancreas, sample 1937): 0.969
- Differential (Prostate, sample 22RV1): 0.506
- Differential (Prostate, sample DU145): 0.236
- Differential (Prostate, sample MRIH1579): −0.764
- Differential (Prostate, sample PC3M): 0.609
- Differential (SCLC, sample 538): 0.706
- Differential (SCLC, sample 573): 0.468
- Differential (SCLC, sample 615): 1.323
- Differential (SCLC, sample 650): 0.661
- Differential (SCLC, sample H69): 0.807
- Differential (Sarcoma, sample 117): 0.840
- Differential (Sarcoma, sample 417): 1.032
- Differential (Sarcoma, sample 463): −1.045
- Differential (Sarcoma, sample 627): −0.764
- Differential (Sarcoma, sample 1186): 0.722
- Differential (Sarcoma, sample 1301): 0.865
- Differential (Sarcoma, sample 1410): −0.115
- sensitive samples / samples (bladder): 4/6
- sensitive samples / samples (breast): 7/10
- sensitive samples / samples (hematological cancers (leukemia and lymphoma)): 5/5
- sensitive samples / samples (sarcomas): 4/7
- sensitive samples / samples (small cell lung cancer (SCLC)): 5/5
- average log(GI50) across the entire panel (soft agar assay panel): 0.236
